Target: T1, Interleukin-1 receptor-associated kinase 4 (Homo sapiens, UniProt Q9NWZ3)
T1 sequence (Q9NWZ3 whole entry): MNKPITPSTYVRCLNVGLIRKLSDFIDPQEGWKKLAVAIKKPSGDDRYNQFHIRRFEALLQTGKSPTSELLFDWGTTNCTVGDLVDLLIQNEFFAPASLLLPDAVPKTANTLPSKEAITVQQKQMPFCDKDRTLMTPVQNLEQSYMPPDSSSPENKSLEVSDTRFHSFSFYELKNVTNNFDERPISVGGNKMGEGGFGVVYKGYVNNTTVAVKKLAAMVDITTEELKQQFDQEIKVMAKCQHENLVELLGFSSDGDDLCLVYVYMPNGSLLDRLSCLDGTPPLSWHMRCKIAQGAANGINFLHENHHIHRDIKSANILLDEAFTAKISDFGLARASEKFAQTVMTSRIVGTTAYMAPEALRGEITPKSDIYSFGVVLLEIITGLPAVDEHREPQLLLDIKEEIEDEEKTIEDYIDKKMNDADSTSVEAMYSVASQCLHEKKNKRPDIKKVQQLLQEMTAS
Assay: Inhibition Assay: The assays were performed in U-bottom 384-well plates. The final assay volume was 30 μL prepared from 15 μL additions of enzyme and substrates (fluoresceinated peptide and ATP) and test compounds in assay buffer (20 mM HEPES pH 7.2, 10 mM MgCl2, 0.015% Brij 35 and 4 mM DTT). The reaction was initiated by the combination of IRAK4 with substrates and test compounds. The reaction mixture was incubated at room temperature for 60 min. and terminated by adding 45 μL of 35 mM EDTA to each sample. The reaction mixture was analyzed on the Caliper LABCHIP® 3000 (Caliper, Hopkinton, Mass.) by electrophoretic separation of the fluorescent substrate and phosphorylated product. Inhibition data were calculated by comparison to no enzyme control reactions for 100% inhibition and vehicle-only reactions for 0% inhibition. The final concentrations of reagents in the assays are ATP, 500 μM; FL-IPTSPITTTYFFFKKK peptide 1.5 μM; IRAK4, 0.6 nM; and DMSO, 1.6%.

- IC50: 595 nM
Structure (SMILES): CC[C@H]1[C@@H](COc2csc3cc(C(N)=O)c(OC)nc23)NC(=O)C1(C)C

— ChEMBL document CHEMBL5728099, “Thienopyridines and benzothiophenes useful as IRAK4 inhibitors” (2020)
